Reference: PubChem BioAssay AID2060613 (Molecular Pharmacology Branch, DTP, NCI, 2025)
Several values for one entry are separate records, joined by “and”; a condition that tells them apart may be missing. Equal values may be shown once.

Tested on: 233499-124-R-J3-PDC complex spheroid viability
Assay: Anticancer human tumor 233499-124-R-J3-PDC patient-derived colon adenocarcinoma cell line growth inhibition [CLK]
Conditions: for viability, T/C: stronger effect = lower value
How it was run: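 Patient-derived tumor cells grown as complex spheroids with HUVEC endothelial cells and mesenchymal stem cells, treated with drug combinations. Concentrations descend in half-log steps from near clinical Cmax, or from 10 microM if Cmax unknown.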

[1] = curve of first compound, second compound 0.0316 µM
[2] = curve of first compound, second compound 0.1 µM
[3] = curve of first compound, second compound 0.316 µM
[4] = curve of first compound, second compound 1 µM
[5] = curve of first compound, second compound 3.16 µM
[6] = curve of first compound, second compound 10 µM
[7] = second compound 0.0316 µM, first compound 0.0316 µM
[8] = second compound 0.0316 µM, first compound 0.1 µM
[9] = second compound 0.0316 µM, first compound 0.316 µM
[10] = second compound 0.0316 µM, first compound 1 µM
[11] = second compound 0.1 µM, first compound 0.0316 µM
[12] = second compound 0.1 µM, first compound 0.1 µM
[13] = second compound 0.1 µM, first compound 0.316 µM
[14] = second compound 0.1 µM, first compound 1 µM
[15] = second compound 0.316 µM, first compound 0.0316 µM
[16] = second compound 0.316 µM, first compound 0.1 µM
[17] = second compound 0.316 µM, first compound 0.316 µM
[18] = second compound 0.316 µM, first compound 1 µM
[19] = second compound 1 µM, first compound 0.0316 µM
[20] = second compound 1 µM, first compound 0.1 µM
[21] = second compound 1 µM, first compound 0.316 µM
[22] = second compound 1 µM, first compound 1 µM
[23] = second compound 3.16 µM, first compound 0.0316 µM
[24] = second compound 3.16 µM, first compound 0.1 µM
[25] = second compound 3.16 µM, first compound 0.316 µM
[26] = second compound 3.16 µM, first compound 1 µM
[27] = second compound 10 µM, first compound 0.0316 µM
[28] = second compound 10 µM, first compound 0.1 µM
[29] = second compound 10 µM, first compound 0.316 µM
[30] = second compound 10 µM, first compound 1 µM
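Also: spheroids exposed to the drug combinations for seven days.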
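For viability, T/C in this document: percent viability relative to DMSO vehicle control wells taken as 100%.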

`C=C(F)C(=O)N1CCN(c2nc(OCC3CCCN3C)nc3c2CCN(c2cccc4cccc(Cl)c24)C3)CC1CC#N` (stereo unspecified) + CNC(=O)c1ccc(Nc2nc(OC3CCCC3)c3c(-c4ccc5nc(C)oc5c4)c[nH]c3n2)c(OC)c1 was tested. Which IC50 [1] did it give?
Its IC50 is 8.76 µM.

What about the IC50 [2] of the same compound?
Its IC50 is 4.72 µM.

What about the IC50 [3] of the same compound?
Its IC50 is 5.57 µM.

What about the IC50 [4] of the same compound?
The IC50 was 5.66 µM.

And the IC50 [5]?
The IC50 was 5.53 µM.

What about the IC50 [6] of the same compound?
Its IC50 is 5.2 µM.

What about the viability, T/C [7] of the same compound?
The viability, T/C was 92.1%.

What about the viability, T/C [8] of the same compound?
The viability, T/C was 84.5%.

What about the viability, T/C [9] of the same compound?
The viability, T/C was 99%.

And the viability, T/C [10]?
The viability, T/C was 89.6%.

And the viability, T/C (second compound 0.0316 µM, first compound 3.16 µM)?
The viability, T/C was 93.5%.

What about the viability, T/C (second compound 0.0316 µM, first compound 10 µM) of the same compound?
Its viability, T/C is 44.5%.

What about the viability, T/C [11] of the same compound?
The viability, T/C was 65.9%.

What about the viability, T/C [12] of the same compound?
Its viability, T/C is 73.2%.

And the viability, T/C [13]?
The viability, T/C was 81.3%.

And the viability, T/C [14]?
The viability, T/C was 70.2%.

What about the viability, T/C (second compound 0.1 µM, first compound 3.16 µM) of the same compound?
Its viability, T/C is 61.4%.

And the viability, T/C (second compound 0.1 µM, first compound 10 µM)?
Its viability, T/C is 28%.

What about the viability, T/C [15] of the same compound?
The viability, T/C was 76.7%.

And the viability, T/C [16]?
Its viability, T/C is 64.9%.

What about the viability, T/C [17] of the same compound?
Its viability, T/C is 69.7%.

What about the viability, T/C [18] of the same compound?
Its viability, T/C is 72.8%.

What about the viability, T/C (second compound 0.316 µM, first compound 3.16 µM) of the same compound?
Its viability, T/C is 79.2%.

And the viability, T/C (second compound 0.316 µM, first compound 10 µM)?
The viability, T/C was 26.7%.

What about the viability, T/C [19] of the same compound?
The viability, T/C was 71.4%.

And the viability, T/C [20]?
Its viability, T/C is 82.5%.

And the viability, T/C [21]?
The viability, T/C was 78.4%.

What about the viability, T/C [22] of the same compound?
Its viability, T/C is 64%.

And the viability, T/C (second compound 1 µM, first compound 3.16 µM)?
The viability, T/C was 71.2%.

And the viability, T/C (second compound 1 µM, first compound 10 µM)?
Its viability, T/C is 30%.

What about the viability, T/C [23] of the same compound?
Its viability, T/C is 76.8%.

And the viability, T/C [24]?
Its viability, T/C is 77.3%.

What about the viability, T/C [25] of the same compound?
Its viability, T/C is 75.8%.

And the viability, T/C [26]?
The viability, T/C was 73.1%.

What about the viability, T/C (second compound 3.16 µM, first compound 3.16 µM) of the same compound?
Its viability, T/C is 75.7%.

What about the viability, T/C (second compound 3.16 µM, first compound 10 µM) of the same compound?
Its viability, T/C is 22.9%.

What about the viability, T/C [27] of the same compound?
Its viability, T/C is 75.5%.

What about the viability, T/C [28] of the same compound?
The viability, T/C was 66.3%.

What about the viability, T/C [29] of the same compound?
Its viability, T/C is 73.8%.

And the viability, T/C [30]?
The viability, T/C was 66.5%.

What about the viability, T/C (second compound 10 µM, first compound 3.16 µM) of the same compound?
The viability, T/C was 74.3%.

What about the viability, T/C (second compound 10 µM, first compound 10 µM) of the same compound?
The viability, T/C was 22%.

Which IC50 [1] does the source give for `CCc1c2c(nc3ccc(O)cc13)-c1cc3c(c(=O)n1C2)COC(=O)[C@]3(O)CC` + CN1CCN(c2cc(C(=O)Nc3cc4cc(-c5cnn(C)c5)ccc4cn3)ccn2)CC1 here?
The IC50 was 0.601 µM.

And the IC50 [2]?
The IC50 was 0.463 µM.

What about the IC50 [3] of the same compound?
Its IC50 is 0.0814 µM.

What about the IC50 [4] of the same compound?
Its IC50 is less than 0.00316 µM.

What about the IC50 [5] of the same compound?
The IC50 was less than 0.00316 µM.

And the IC50 [6]?
Its IC50 is less than 0.00316 µM.

What about the viability, T/C (second compound 0.0316 µM, first compound 0.00316 µM) of the same compound?
Its viability, T/C is 95.4%.

And the viability, T/C (second compound 0.0316 µM, first compound 0.01 µM)?
Its viability, T/C is 65.8%.

What about the viability, T/C [7] of the same compound?
The viability, T/C was 81.8%.

What about the viability, T/C [8] of the same compound?
Its viability, T/C is 87.3%.

What about the viability, T/C [9] of the same compound?
Its viability, T/C is 60.5%.

And the viability, T/C [10]?
The viability, T/C was 41.7%.

What about the viability, T/C (second compound 0.1 µM, first compound 0.00316 µM) of the same compound?
Its viability, T/C is 85.6%.

What about the viability, T/C (second compound 0.1 µM, first compound 0.01 µM) of the same compound?
Its viability, T/C is 82.5%.

And the viability, T/C [11]?
Its viability, T/C is 88%.

And the viability, T/C [12]?
The viability, T/C was 88.1%.

And the viability, T/C [13]?
The viability, T/C was 60.7%.

And the viability, T/C [14]?
The viability, T/C was 28.4%.

What about the viability, T/C (second compound 0.316 µM, first compound 0.00316 µM) of the same compound?
Its viability, T/C is 88%.

And the viability, T/C (second compound 0.316 µM, first compound 0.01 µM)?
The viability, T/C was 80.9%.

And the viability, T/C [15]?
The viability, T/C was 58.5%.

And the viability, T/C [16]?
Its viability, T/C is 58.5%.

And the viability, T/C [17]?
The viability, T/C was 14.1%.

And the viability, T/C [18]?
The viability, T/C was 9.37%.

And the viability, T/C (second compound 1 µM, first compound 0.00316 µM)?
Its viability, T/C is 1.6%.

What about the viability, T/C (second compound 1 µM, first compound 0.01 µM) of the same compound?
Its viability, T/C is 0.5%.

And the viability, T/C [19]?
Its viability, T/C is 0.39%.

And the viability, T/C [20]?
The viability, T/C was 0.38%.

And the viability, T/C [21]?
Its viability, T/C is 0.35%.

What about the viability, T/C [22] of the same compound?
The viability, T/C was 0.47%.

And the viability, T/C (second compound 3.16 µM, first compound 0.00316 µM)?
The viability, T/C was 0.46%.

What about the viability, T/C (second compound 3.16 µM, first compound 0.01 µM) of the same compound?
Its viability, T/C is 0.5%.

And the viability, T/C [23]?
The viability, T/C was 0.59%.

And the viability, T/C [24]?
Its viability, T/C is 0.52%.

And the viability, T/C [25]?
Its viability, T/C is 0.63%.

What about the viability, T/C [26] of the same compound?
Its viability, T/C is 0.55%.

And the viability, T/C (second compound 10 µM, first compound 0.00316 µM)?
Its viability, T/C is 0.36%.

What about the viability, T/C (second compound 10 µM, first compound 0.01 µM) of the same compound?
The viability, T/C was 0.33%.

And the viability, T/C [27]?
The viability, T/C was 0.32%.

And the viability, T/C [28]?
Its viability, T/C is 0.37%.

What about the viability, T/C [29] of the same compound?
The viability, T/C was 0.42%.

And the viability, T/C [30]?
The viability, T/C was 0.3%.

How did the viability, T/C (compound 0.000949 µM) turn out when `C=CC(=O)Nc1cc(Nc2nccc(-c3cn(C)c4ccccc34)n2)c(OC)cc1N(C)CCN(C)C` was run?
The viability, T/C was 92.5% and 102%.

And the viability, T/C (compound 0.003 µM)?
The viability, T/C was 91.5% and 98.6%.

What about the viability, T/C (compound 0.00949 µM) of the same compound?
Its viability, T/C is 99.7% and 103%.

What about the viability, T/C (compound 0.03 µM) of the same compound?
The viability, T/C was 96.9% and 87.8%.

What about the viability, T/C (compound 0.0949 µM) of the same compound?
The viability, T/C was 86% and 93.7%.

What about the viability, T/C (compound 0.3 µM) of the same compound?
Its viability, T/C is 76.8% and 82.2%.

And the IC50 (curve of compound)?
Its IC50 is greater than 0.3 µM.
